Experimental data as given in ChEMBL document CHEMBL5723582, “Data for DCP probe T-10430” (2024).

Columns and labels:
Details in all cases: Compound concentration 1.0 uM
[1] = biological target: G-protein coupled receptor 171 (Homo sapiens) (UniProt O14626); assay: RLU of GPR171 at 1.0 µM in the […] PRESTO-Tango GPCRome screen
[2] = biological target: Muscarinic acetylcholine receptor M4 (Homo sapiens) (UniProt P08173); assay: RLU of CHRM4 at 1.0 µM in the […] PRESTO-Tango GPCRome screen
[3] = biological target: Prostaglandin E2 receptor EP4 subtype (Homo sapiens) (UniProt P35408); assay: RLU of PTGER4 at 1.0 µM in the […] PRESTO-Tango GPCRome screen
[4] = biological target: Delta-type opioid receptor (Homo sapiens) (UniProt P41143); assay: RLU of OPRD1 at 1.0 µM in the […] PRESTO-Tango GPCRome screen
[5] = biological target: Adhesion G-protein coupled receptor F3 (Homo sapiens) (UniProt Q8IZF5); assay: RLU of GPR113 at 1.0 µM in the […] PRESTO-Tango GPCRome screen
[6] = biological target: Alpha-1A adrenergic receptor (Homo sapiens) (UniProt P35348); assay: RLU of ADRA1A at 1.0 µM in the […] PRESTO-Tango GPCRome screen
[7] = biological target: Trace amine-associated receptor 5 (Homo sapiens) (UniProt O14804); assay: RLU of TAAR5 at 1.0 µM in the […] PRESTO-Tango GPCRome screen
[8] = biological target: G-protein coupled receptor 84 (Homo sapiens) (UniProt Q9NQS5); assay: RLU of GPR84 at 1.0 µM in the […] PRESTO-Tango GPCRome screen
Chain of G-protein coupled receptor 84 (Homo sapiens) (Q9NQS5 whole entry): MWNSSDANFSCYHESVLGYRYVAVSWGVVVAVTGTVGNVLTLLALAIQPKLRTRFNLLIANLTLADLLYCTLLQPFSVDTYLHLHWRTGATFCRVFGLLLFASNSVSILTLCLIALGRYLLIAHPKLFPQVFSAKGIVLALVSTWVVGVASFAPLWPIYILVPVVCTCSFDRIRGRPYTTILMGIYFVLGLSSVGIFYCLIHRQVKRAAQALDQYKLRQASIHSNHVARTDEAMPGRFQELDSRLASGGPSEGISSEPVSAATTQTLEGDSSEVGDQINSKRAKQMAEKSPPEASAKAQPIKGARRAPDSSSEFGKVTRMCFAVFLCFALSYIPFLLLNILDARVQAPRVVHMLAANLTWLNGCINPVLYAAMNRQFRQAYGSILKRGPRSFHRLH

[9] = biological target: Free fatty acid receptor 4 (Homo sapiens) (UniProt Q5NUL3); assay: RLU of GPR120 at 1.0 µM in the […] PRESTO-Tango GPCRome screen
Chain of Free fatty acid receptor 4 (Homo sapiens) (Q5NUL3 whole entry): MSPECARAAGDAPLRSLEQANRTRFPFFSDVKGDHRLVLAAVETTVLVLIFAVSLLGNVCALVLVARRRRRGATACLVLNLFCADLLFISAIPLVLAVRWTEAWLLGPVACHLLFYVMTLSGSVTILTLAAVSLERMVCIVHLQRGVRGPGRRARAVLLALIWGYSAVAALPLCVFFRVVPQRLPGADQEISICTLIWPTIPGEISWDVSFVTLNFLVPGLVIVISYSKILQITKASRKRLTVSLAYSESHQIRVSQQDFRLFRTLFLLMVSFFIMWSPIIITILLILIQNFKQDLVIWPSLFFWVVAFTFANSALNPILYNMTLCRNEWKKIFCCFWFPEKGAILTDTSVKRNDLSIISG

[10] = biological target: Probable G-protein coupled receptor 173 (Homo sapiens) (UniProt Q9NS66); assay: RLU of GPR173 at 1.0 µM in the […] PRESTO-Tango GPCRome screen
[11] = biological target: Neuropeptide Y receptor type 4 (Homo sapiens) (UniProt P50391); assay: RLU of NPY4R at 1.0 µM in the […] PRESTO-Tango GPCRome screen
Chain of Neuropeptide Y receptor type 4 (Homo sapiens) (P50391 whole entry): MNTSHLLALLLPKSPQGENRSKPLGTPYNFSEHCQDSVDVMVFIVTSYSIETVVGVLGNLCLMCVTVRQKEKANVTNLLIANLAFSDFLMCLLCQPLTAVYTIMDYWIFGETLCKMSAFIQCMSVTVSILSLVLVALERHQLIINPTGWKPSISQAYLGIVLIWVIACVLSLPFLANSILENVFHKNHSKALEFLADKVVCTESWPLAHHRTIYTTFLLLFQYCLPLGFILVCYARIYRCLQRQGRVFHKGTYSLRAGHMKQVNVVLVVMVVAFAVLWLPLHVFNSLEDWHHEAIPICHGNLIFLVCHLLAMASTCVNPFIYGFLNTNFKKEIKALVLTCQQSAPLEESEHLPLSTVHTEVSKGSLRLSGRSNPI

[12] = biological target: Adhesion G-protein coupled receptor D1 (Homo sapiens) (UniProt Q6QNK2); assay: RLU of GPR133 at 1.0 µM in the […] PRESTO-Tango GPCRome screen
[13] = biological target: C-C chemokine receptor type 4 (Homo sapiens) (UniProt P51679); assay: RLU of CCR4 at 1.0 µM in the […] PRESTO-Tango GPCRome screen
[14] = biological target: G-protein coupled receptor 6 (Homo sapiens) (UniProt P46095); assay: RLU of GPR6 at 1.0 µM in the […] PRESTO-Tango GPCRome screen
[15] = biological target: 5-hydroxytryptamine receptor 2B (Homo sapiens) (UniProt P41595); assay: RLU of HTR2B at 1.0 µM in the […] PRESTO-Tango GPCRome screen
[16] = biological target: Urotensin-2 receptor (Homo sapiens) (UniProt Q9UKP6); assay: RLU of UTS2R at 1.0 µM in the […] PRESTO-Tango GPCRome screen
[17] = biological target: Lysophosphatidic acid receptor 6 (Homo sapiens) (UniProt P43657); assay: RLU of LPAR6 at 1.0 µM in the […] PRESTO-Tango GPCRome screen
[18] = biological target: Adhesion G protein-coupled receptor G3 (Homo sapiens) (UniProt Q86Y34); assay: RLU of GPR97 at 1.0 µM in the […] PRESTO-Tango GPCRome screen
[19] = biological target: 5-hydroxytryptamine receptor 1B (Homo sapiens) (UniProt P28222); assay: RLU of HTR1B at 1.0 µM in the Aequorin PRESTO-Tango GPCRome screen
[20] = biological target: Alpha-2A adrenergic receptor (Homo sapiens) (UniProt P08913); assay: RLU of ADRA2A at 1.0 µM in the […] PRESTO-Tango GPCRome screen
Chain of Alpha-2A adrenergic receptor (Homo sapiens) (P08913 whole entry): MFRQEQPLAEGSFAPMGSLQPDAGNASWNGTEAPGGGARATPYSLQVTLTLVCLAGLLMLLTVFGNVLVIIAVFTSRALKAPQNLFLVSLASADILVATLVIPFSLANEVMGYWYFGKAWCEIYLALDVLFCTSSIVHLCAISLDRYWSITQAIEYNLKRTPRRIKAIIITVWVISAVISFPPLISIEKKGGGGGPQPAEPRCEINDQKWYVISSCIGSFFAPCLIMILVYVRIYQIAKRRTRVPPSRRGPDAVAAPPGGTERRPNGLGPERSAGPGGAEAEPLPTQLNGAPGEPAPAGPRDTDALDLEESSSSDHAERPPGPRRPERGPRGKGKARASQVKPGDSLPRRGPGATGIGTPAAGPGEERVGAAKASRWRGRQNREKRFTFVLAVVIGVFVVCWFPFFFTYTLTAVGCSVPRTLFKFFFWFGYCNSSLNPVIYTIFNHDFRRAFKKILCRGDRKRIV

[21] = biological target: Vasopressin V1a receptor (Homo sapiens) (UniProt P37288); assay: RLU of AVPR1A at 1.0 µM in the […] PRESTO-Tango GPCRome screen
[22] = biological target: Metabotropic glycine receptor (Homo sapiens) (UniProt Q5T848); assay: RLU of GPR158 at 1.0 µM in the […] PRESTO-Tango GPCRome screen
Chain of Metabotropic glycine receptor (Homo sapiens) (Q5T848 whole entry): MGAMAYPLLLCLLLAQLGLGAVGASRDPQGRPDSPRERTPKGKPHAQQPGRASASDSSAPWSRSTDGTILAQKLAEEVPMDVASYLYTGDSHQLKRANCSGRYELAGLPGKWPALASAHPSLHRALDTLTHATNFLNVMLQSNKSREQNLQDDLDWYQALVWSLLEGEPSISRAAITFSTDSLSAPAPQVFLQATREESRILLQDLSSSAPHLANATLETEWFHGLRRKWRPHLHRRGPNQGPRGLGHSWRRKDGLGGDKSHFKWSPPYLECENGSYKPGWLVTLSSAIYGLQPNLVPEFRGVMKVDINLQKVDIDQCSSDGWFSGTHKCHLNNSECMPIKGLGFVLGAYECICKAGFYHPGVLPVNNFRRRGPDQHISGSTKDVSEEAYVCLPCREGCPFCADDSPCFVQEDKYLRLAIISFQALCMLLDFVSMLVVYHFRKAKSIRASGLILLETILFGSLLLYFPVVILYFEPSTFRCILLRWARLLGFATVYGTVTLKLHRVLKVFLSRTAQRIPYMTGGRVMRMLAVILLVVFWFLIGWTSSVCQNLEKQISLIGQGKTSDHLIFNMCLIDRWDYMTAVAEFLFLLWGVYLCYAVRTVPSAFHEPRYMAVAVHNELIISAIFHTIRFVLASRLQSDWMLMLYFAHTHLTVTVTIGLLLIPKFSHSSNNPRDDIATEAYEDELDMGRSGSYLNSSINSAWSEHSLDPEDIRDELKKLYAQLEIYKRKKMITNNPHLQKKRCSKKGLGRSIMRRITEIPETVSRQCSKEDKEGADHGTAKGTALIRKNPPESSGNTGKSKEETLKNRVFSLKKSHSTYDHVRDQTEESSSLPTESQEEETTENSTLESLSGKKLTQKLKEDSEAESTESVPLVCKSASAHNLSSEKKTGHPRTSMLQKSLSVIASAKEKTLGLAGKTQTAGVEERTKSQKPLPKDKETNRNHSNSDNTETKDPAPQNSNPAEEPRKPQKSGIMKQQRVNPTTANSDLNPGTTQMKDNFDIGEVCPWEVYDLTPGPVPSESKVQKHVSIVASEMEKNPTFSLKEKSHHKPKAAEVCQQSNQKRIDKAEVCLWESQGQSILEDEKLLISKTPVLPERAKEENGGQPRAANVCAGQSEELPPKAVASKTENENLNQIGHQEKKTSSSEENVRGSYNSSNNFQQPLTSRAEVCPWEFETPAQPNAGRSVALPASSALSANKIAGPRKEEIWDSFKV

[23] = biological target: Prostaglandin D2 receptor (Homo sapiens) (UniProt Q13258); assay: RLU of PTGDR at 1.0 µM in the […] PRESTO-Tango GPCRome screen
[24] = biological target: G-protein coupled receptor 12 (Homo sapiens) (UniProt P47775); assay: RLU of GPR12 at 1.0 µM in the […] PRESTO-Tango GPCRome screen
[25] = biological target: Muscarinic acetylcholine receptor M3 (Homo sapiens) (UniProt P20309); assay: RLU of CHRM3 at 1.0 µM in the […] PRESTO-Tango GPCRome screen
Chain of Muscarinic acetylcholine receptor M3 (Homo sapiens) (P20309 whole entry, looked up): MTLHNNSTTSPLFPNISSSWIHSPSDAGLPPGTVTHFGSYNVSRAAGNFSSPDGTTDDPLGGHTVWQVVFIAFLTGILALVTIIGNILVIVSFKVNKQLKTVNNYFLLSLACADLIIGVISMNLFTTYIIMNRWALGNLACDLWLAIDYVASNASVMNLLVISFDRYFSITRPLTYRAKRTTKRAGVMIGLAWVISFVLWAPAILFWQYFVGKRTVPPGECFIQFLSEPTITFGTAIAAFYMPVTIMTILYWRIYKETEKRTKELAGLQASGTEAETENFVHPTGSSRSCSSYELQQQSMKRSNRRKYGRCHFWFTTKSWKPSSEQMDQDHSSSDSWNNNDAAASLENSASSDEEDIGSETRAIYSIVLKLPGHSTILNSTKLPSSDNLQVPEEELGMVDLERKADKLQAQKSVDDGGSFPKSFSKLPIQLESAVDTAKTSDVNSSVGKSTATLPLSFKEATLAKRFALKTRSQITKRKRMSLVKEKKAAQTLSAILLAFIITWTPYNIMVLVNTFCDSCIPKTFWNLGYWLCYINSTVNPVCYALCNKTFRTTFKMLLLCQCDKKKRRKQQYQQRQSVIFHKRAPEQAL

[26] = biological target: B2 bradykinin receptor (Homo sapiens) (UniProt P30411); assay: RLU of BDKRB2 at 1.0 µM in the […] PRESTO-Tango GPCRome screen
Chain of B2 bradykinin receptor (Homo sapiens) (P30411 whole entry): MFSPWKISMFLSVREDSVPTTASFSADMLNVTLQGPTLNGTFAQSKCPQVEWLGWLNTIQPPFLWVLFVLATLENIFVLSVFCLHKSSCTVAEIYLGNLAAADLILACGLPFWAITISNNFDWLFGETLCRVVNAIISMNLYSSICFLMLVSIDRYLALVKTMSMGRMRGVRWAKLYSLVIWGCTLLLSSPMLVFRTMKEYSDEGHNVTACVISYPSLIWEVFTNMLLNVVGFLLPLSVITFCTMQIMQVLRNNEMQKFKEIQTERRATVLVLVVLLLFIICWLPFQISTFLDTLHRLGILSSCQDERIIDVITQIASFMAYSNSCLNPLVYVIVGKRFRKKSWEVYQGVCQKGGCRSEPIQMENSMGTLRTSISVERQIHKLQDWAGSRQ

[27] = biological target: Metabotropic glutamate receptor 7 (Homo sapiens) (UniProt Q14831); assay: RLU of GRM7 at 1.0 µM in the Aequorin PRESTO-Tango GPCRome screen
Chain of Metabotropic glutamate receptor 7 (Homo sapiens) (Q14831 whole entry): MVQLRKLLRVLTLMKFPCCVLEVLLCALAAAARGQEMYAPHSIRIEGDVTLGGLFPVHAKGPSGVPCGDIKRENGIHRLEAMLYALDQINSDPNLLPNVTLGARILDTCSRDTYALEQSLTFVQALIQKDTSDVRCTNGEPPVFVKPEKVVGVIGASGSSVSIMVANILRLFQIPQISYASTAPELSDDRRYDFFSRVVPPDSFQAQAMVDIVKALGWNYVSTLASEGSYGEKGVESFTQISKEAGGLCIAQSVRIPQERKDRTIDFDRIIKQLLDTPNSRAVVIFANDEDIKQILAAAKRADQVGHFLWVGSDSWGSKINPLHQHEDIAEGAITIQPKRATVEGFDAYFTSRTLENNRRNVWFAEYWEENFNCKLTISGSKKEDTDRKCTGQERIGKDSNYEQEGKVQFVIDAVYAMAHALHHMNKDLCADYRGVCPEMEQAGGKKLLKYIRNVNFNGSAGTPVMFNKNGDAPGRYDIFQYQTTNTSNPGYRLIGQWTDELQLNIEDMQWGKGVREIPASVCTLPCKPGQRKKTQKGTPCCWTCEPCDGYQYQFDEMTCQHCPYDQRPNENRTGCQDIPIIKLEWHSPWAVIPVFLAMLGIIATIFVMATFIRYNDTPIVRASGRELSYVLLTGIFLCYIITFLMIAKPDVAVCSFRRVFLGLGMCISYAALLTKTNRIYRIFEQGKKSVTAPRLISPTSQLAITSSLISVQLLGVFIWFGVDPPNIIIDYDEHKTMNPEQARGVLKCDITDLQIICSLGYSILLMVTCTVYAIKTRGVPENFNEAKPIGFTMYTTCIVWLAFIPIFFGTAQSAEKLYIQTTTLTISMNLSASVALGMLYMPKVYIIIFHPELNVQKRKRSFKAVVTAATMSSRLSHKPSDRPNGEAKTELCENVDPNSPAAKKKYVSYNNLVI

[28] = biological target: Trace amine-associated receptor 6 (Homo sapiens) (UniProt Q96RI8); assay: RLU of TAAR6 at 1.0 µM in the […] PRESTO-Tango GPCRome screen
[29] = biological target: Metabotropic glutamate receptor 8 (Homo sapiens) (UniProt O00222); assay: RLU of GRM8 at 1.0 µM in the Aequorin PRESTO-Tango GPCRome screen
[30] = biological target: P2Y purinoceptor 6 (Homo sapiens) (UniProt Q15077); assay: RLU of P2RY6 at 1.0 µM in the […] PRESTO-Tango GPCRome screen
[31] = biological target: C-C chemokine receptor type 8 (Homo sapiens) (UniProt P51685); assay: RLU of CCR8 at 1.0 µM in the […] PRESTO-Tango GPCRome screen
[32] = biological target: G-protein coupled receptor 3 (Homo sapiens) (UniProt P46089); assay: RLU of GPR3 at 1.0 µM in the […] PRESTO-Tango GPCRome screen
[33] = biological target: 5-hydroxytryptamine receptor 1D (Homo sapiens) (UniProt P28221); assay: RLU of HTR1D at 1.0 µM in the […] PRESTO-Tango GPCRome screen
[34] = biological target: Corticotropin-releasing factor receptor 2 (Homo sapiens) (UniProt Q13324); assay: RLU of CRHR2 at 1.0 µM in the […] PRESTO-Tango GPCRome screen
[35] = biological target: Metabotropic glutamate receptor 5 (Homo sapiens) (UniProt P41594); assay: RLU of GRM5 at 1.0 µM in the Aequorin PRESTO-Tango GPCRome screen

CCCCC(=O)N1CC2(C1)CN(c1ccccc1-c1nnn[nH]1)C2
RLU [1]: -3250
RLU [2]: -838
RLU [3]: 620
RLU [4]: 1290
RLU [5]: 387
RLU [6]: 8350
RLU [7]: 821
RLU [8]: -3990
RLU [9]: 1030
RLU [10]: -36.4
RLU [11]: -158
RLU [12]: -2660
RLU [13]: 6410
RLU [14]: 1.07e+06
RLU [15]: -1740
RLU [16]: -160
RLU [17]: -7370
RLU [18]: 2050
RLU [19]: 77.2
RLU [20]: 10100
RLU [21]: 5670
RLU [22]: 1540
RLU [23]: 375
RLU [24]: 109
RLU [25]: 6260
RLU [26]: 892
RLU [27]: 6950
RLU [28]: -394
RLU [29]: -4060
RLU [30]: -7240
RLU [31]: -3270
RLU [32]: -1780
RLU [33]: -12300
RLU [34]: 410
RLU [35]: -10100
